Results on six compounds are retold here after patent US4710578A, “Isothiuronium salts” (Peremartoni Vegyipari Vallalat, priority 1984, dated 1987).

Like-named read-outs stand apart in the source and are kept apart here.

The subject of series [1] is ticks (Ixodes ricinus). Put plainly: Anti-parasital effect in dogs infected by ticks. The note with it: oral 1-2 mg/kg; six-eight hours after administration. Format: in vivo. As to the method:
Compounds of the Formula I were added orally to dogs infected by ticks (Ixodes ricinus) for three days. Thus N-aminoiminomethyl-S-allyl-isothiuronium hydrochloride was administered in an oral dose of 1-2 mg/kg and the killing rate of ticks was registered.

Series [2] concerns heart muscle. Put plainly: Cardioprotective effect in isoprenaline necrosis. In kind it is in vivo, male CFY rats. The conditions noted are these: 1-5 mg/kg i.p. or 10-50 mg/kg p.o.; isoproterenol 5 mg/kg i.p.; two weeks. As to the method:
5 mg/kg of isoproterenol are i.p. administered to male CFY rats (weight 250-300 g). In each group 10 animals were used. One part of the animals served as control and the other were treated with a 1-5 mg/kg i.p. or 10-50 mg/kg p.o. dose of compound No. 14. After two weeks the hearts were subjected to hystological evaluation. The ratio of necrotized and intact area of heart muscle were determined.

Series [3] concerns ascites lymphoma cells. The series is described as follows: Preliminary rapid test: antitumor effect. Format: in vivo, CFLP male mice. The note with it: oral, one-tenth of LD50; 24 hours.
Series [4] in a line: in vivo.
Series [5] relates to neutrophilic granulocytes, lymphocytes and macrophages. The series is described as follows: Preliminary rapid test: immunostimulant effect. In kind it is in vivo, CFLP male mice. The conditions noted are these: oral, one-tenth of LD50; 24 hours. On the set-up: key: 0: if there is no difference in the number and activity of the said cells, no increase can be declared over the control; medium: Medium effect is observed if the increase of cell number or activity over the control amounts to 20%; The effect is strong if the increase of the cell number and activity of the immune system is more than 20% higher than the control.

Series [6] has as its system neutrophylic granulocytes and limphocytes. The conditions noted are these: mouse, in vivo, po.
In series [7] the test system is human bone metastasis of mammal tumors, ovary tumors and pancreas tumors. Put plainly: Human tumors, oral treatment for 6-12 months. In kind it is in vivo. The conditions noted are these: oral daily dose 30-120 mg (0.5-2 mg/kg).
In series [8] the test system is human lymphocytes. The series is described as follows: Immunological tests (overall; NK and K cell activity). In kind it is cell-based. The procedure:
Lymphocytes were separated on Ficoll-Uromiro (Boyum 1968) gradient from the venal blood of healthy donors and patients suffering from malignant lymphoma and metastatizing solid tumours, respectively. When selecting the patients belonging to the latter group, the decreased ADCC and NK activity was taken into consideration. The phagocytes were removed by treatment with iron powder and a magnet.
ADCC was determined according to the method of Perlmann and Perlmann (1970) with minor modifications (Lang et al, 1981). Chicken erythrocytes labelled with 10^5 51 Cr and coated with anti-chicken erythrocyte rabbit-serum were incubated with the lymphocytes for 4 hours at 37° C. The reaction having been stopped the activity of the supernatant of the centrifuged cells was determined in a gamma-counter. The rate of chrome-release was expressed as the cytotoxicity index (CI %). This value was calculated as described in one of our earlier publications (Lang et al., 1980)--(see Table I).
NK activity was determined by the method of Jondal and Pross (1975) by using minor modifications (Lang et al, 1981). K-562 tumor cells labelled by ^51 Cr were incubated with effector cells in a TC 199 liquid nutrient medium comprising 10% of decomplemented calf serum. The reaction having been stopped the radioactivity of the superntant of the centrifuged cells (chrome release) was counted in a gamma-counter. The killing of the tumor cells (cytotoxicity index %) was expressed as the difference of the test release and spontaneous release.
Statistical calculations were carried out by means of a mono-sample test. […] The said effect may be so strong that cytotoxic activity decreased to one-tenth of the original value may be restored to the oroginal level (Table II).

Series [9] concerns NK-ly-ascites lymphoma. The series is described as follows: NK-ly-ascites lymphoma in vivo. The note with it: for Activity against NK-ly-ascites tumor: concentration below one-tenth of the LD50 value; for Survival rate and lifetime: dose-dependant; for Cytotoxical dose range: mouse, in vivo. Set-up: species or system CFLP male mice.
The subject of series [10] is human polymorphonuclear leucocytes. Put plainly: Direct /random/ migration of human polymorphonuclear leucocytes on agarose microdrops. In kind it is cell-based. The note with it: for Effect on migration at a higher dose: 10 μg/ml; for Direct (random) migration of polymorphonuclear cells / Optimal dose for increase of migration: healthy donors. As to the method:
Spontaneous (random) migration of leukocytes was measured on agarose microdrops according to the method of McCoy et al (1977) by carrying out some minor modifications (Kalmar and Gergely, 1982).
[…] agarose drops (0.2%) were placed on migration plates (Greiner, German Federal Republic). TC 199 liquid nutrient medium was added and the plates were air-tightly closed. After 24 hours the migration area were measured under a stereomicroscope. The migration area were expressed in mm^2.

The subject of series [11] is P-388 mouse lymphoma cells. Put plainly: In vitro antitumor effect, P-388. In kind it is cell-based. The note with it: 400 μg/ml.
The subject of series [12] is hemodinamical parameters and respiration function of cats.
For series [13], the system named is tumor cells. Put plainly: Testing of antitumor effect (overall).
For series [14], the system named is NK-yl ascites tumor. Put plainly: Combinations with known cytostatic agents in NK-ly ascites tumor. The note with it: with cyclophosphamide, carnomustine, degranol, dibromo dulcitol or dibromo mannitol. In kind it is in vivo, CFLP mice.
For series [15] the following is noted: in vivo, 24 h.

For `C=CCSC(=N)NC(=N)N` [Example 12, N-Aminoiminomethyl-S-Allyl-Isothiuronium Chloride], the “Killing rate of ticks” value in series [1] is on record as “all ticks were killed”. Also, the “Necrosis of heart muscle” value in series [2] is on record as “significant decrease of necrosis”.
In general, LD50 refers to the dose at which mortality reaches 50%. `N=C(N)NC(=N)SCc1ccccc1` [Example 18, N-Aminoiminomethyl-S-Benzyl-Thiuronium Chloride]: the Antitumor effect result in [3] is “increase”. Moreover, the LD50 at 24 h in series [4] (po) stood at 2420 ± 260 mg/kg. Besides, in [5], the Immunostimulant effect is reported as 0. In addition, the Toxic effect in series [6] came out at 0.
Take `C=CCSC(=N)NC(=N)N` [Example 11, N-Aminoiminomethyl-S-Allyl-Isothiuronium Bromide]: the LD50 at 24 h in series [4] (ip) worked out at 320 ± 30 mg/kg. In addition, in [4] (po), the LD50 at 24 h is 2380 ± 320 mg/kg. In addition, in series [5], the Immunostimulant effect result was “strong (The effect is strong if the increase of the cell number and activity of the immune system is more than 20% higher than the control)”. Also, the “Clinical outcome in human tumors” value in series [7] is reported as “significant improvement or reconvalescence”. Besides, in series [8], the Immunostimulant effect result is “outstanding immunostimulant effect”; the “Increase of normal and strongly decreased NK and K cell activity” value was “significant increase of normal and strongly decreased NK and K cell activity, even above the normal level”. In series [9], the “Activity against NK-ly-ascites tumor” value is on record as “active agains Nk-ly-ascites tumor in a concentration below one-tenth of the LD50 value”; the “Survival rate and lifetime” value was “increase survival rate and lifetime in a dose-dependant manner”; the Cytotoxical dose range lay within 250 to 500 mg/kg. In addition, in series [10], the “Effect on migration at a higher dose” value was “less expressed”, the “Direct (random) migration of polymorphonuclear cells” value was “increased” and the “Optimal dose for increase of migration” value was 1.0 µg/mL. Besides, the “Activity on P-388 cells on increasing the concentration” value in series [11] is given as “the activity does not become stronger”. For the same compound, in series [12] (10 mg/kg i.v., opened and closed chest), the “Hemodinamical parameters and respiration function” value is “does not considerably effect the hemodinamical parameters and respiration function”. The “Left ventricular pressure and frequency effects” value in series [12] (50 mg/kg i.v.) is “significant and long-lasting”. Further, the Hemodynamical changes entry in series [12] (100 mg/kg i.v.) is listed as “strong hemodynamical changes were observed”. For the same compound, in series [12] (above 10 mg/kg i.v.), the “Left ventricular pressure and frequency” value was “decreased”. Further, the Lethality result in series [12] (in vivo) is “the cats did not perish”. The Antitumor effect entry in series [13] is “outstanding antitumor effect”. In series [14], the “Antitumor effect of combination vs cytostatic agent alone” value was “the antitumor effect was strengthened” and the “Immunodepression of combination vs cytostatic agent alone” value was “immunodepression decreased”. The compound also showed a Toxic effect in series [6] of 0.
On to “N-Aminoiminomethyl-S-(1-Chloro-2-Hydroxy-Propyl)-Isothiuronium Bromide [Example 14]”, for which, in series [5], the Immunostimulant effect result is reported as “weak”. Besides, in [9], the “Activity against NK-ly-ascites tumor” value is on record as “active agains Nk-ly-ascites tumor in a concentration below one-tenth of the LD50 value”; the “Survival rate and lifetime” value was “increase survival rate and lifetime in a dose-dependant manner”. In addition, in series [10], the “Effect on migration at a higher dose” value is “less expressed”, the “Direct (random) migration of polymorphonuclear cells” value is on record as “increased” and the “Optimal dose for increase of migration” value is 1.0 µg/mL. The Antitumor effect entry in series [13] is “outstanding antitumor effect”. Moreover, the “LD50” value in series [15] was 2380 mg/kg. Also, the LD50 in series [15] (po) is reported as 1240 ± 160 mg/kg. In addition, in [14], the “Antitumor effect of combination vs cytostatic agent alone” value is given as “the antitumor effect was strengthened” and the “Immunodepression of combination vs cytostatic agent alone” value is listed as “immunodepression decreased”.
Turning to `N=C(N)NC(=N)SCCO` [Example 16, N-Aminoiminomethyl-S-(2-Hydroxyethyl)-Isothiuronium Chloride], the LD50 at 24 h in series [4] (ip) is 1680 ± 210 mg/kg; in series [4] (po), 3280 ± 460 mg/kg. Further, the Immunostimulant effect entry was “strong (The effect is strong if the increase of the cell number and activity of the immune system is more than 20% higher than the control)” in series [5]; “outstanding immunostimulant effect” in series [8]. In addition, the “Increase of normal and strongly decreased NK and K cell activity” value in series [8] is “significant increase of normal and strongly decreased NK and K cell activity, even above the normal level”. The “Antitumor effect of combination vs cytostatic agent alone” value in series [14] was “the antitumor effect was strengthened”. The “Immunodepression of combination vs cytostatic agent alone” value in series [14] is listed as “immunodepression decreased”. In [6], the Toxic effect stood at 0.
In the case of `C=CCSC(=NC1CCCCC1)NC(=N)N` [Example 22, N-Aminoiminomethyl-N'-Cyclohexyl-S-Allyl-Isothiuronium Chloride], the LD50 at 24 h in series [4] (ip) was 65 ± 5.1 mg/kg. For the same compound, in series [4] (po), the 50% lethal dose (LD50) at 24 h was 450 ± 51 mg/kg. Besides, in series [5], the Immunostimulant effect result is on record as “weak”. Besides, in [9], the “Activity against NK-ly-ascites tumor” value is reported as “active agains Nk-ly-ascites tumor in a concentration below one-tenth of the LD50 value”; the “Survival rate and lifetime” value was “increase survival rate and lifetime in a dose-dependant manner”; the Cytotoxical dose range fell in the range of 40 to 160 mg/kg. In series [15] (ip), this compound had an LD50 of 40 ± 6 mg/kg. The 50% lethal dose (LD50) in series [15] (po) came to 400 ± 38 mg/kg. Also, the Toxic effect in [6] is 0.
